From the NIST ThermoML archive (doi:10.1016/j.fluid.2011.09.020)

Settings: Liquid, Ebulliometric method (Recirculating still)

O=C(O)C(Cl)Cl [2,2-dichloroacetic acid]
Settings | vapor or sublimation pressure [kPa]
384.3 K | 5
388.3 K | 6
391.8 K | 7
394.8 K | 8
397.6 K | 9
400.2 K | 10
402.4 K | 11
404.3 K | 12
406.4 K | 13
408.3 K | 14
410.1 K | 15
414.1 K | 17.5
417.5 K | 20
423.5 K | 25
428.6 K | 30
437 K | 40

O=C(O)CCl [chloroethanoic acid]
Settings | vapor or sublimation pressure [kPa]
380.7 K | 5
384.7 K | 6
389.5 K | 7.5
391 K | 8
393.8 K | 9
396.3 K | 10
398.7 K | 11
400.7 K | 12
402.7 K | 13
404.6 K | 14
406.3 K | 15
410.2 K | 17.5
413.7 K | 20
419.5 K | 25
424.5 K | 30
432.6 K | 40
